# Experimental data published in the supplement of paper PMC10307832.
# Compound: COc1cccc2cc(-c3nc([C@H]4CC[C@H](C(=O)O)CC4)n4ncnc(N)c34)[nH]c12 [OSI-027] + CC(C)C[C@H](NC(=O)[C@H](Cc1ccccc1)NC(=O)c1cnccn1)B(O)O [Bortezomib] (partner 0.002 µM)
# Experiment: relative viability (nuclei count vs DMSO), 5 days (fraction); higher = more cells survive
# Settings: first compound 0.3162 µM
# In short: (§1)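 After 5 days of treatment, lung cancer cells in 1536-well plates were fixed and stained in a single step (final 0.05% Triton X-100, 1% formaldehyde, 1 ug/ml Hoechst) and their nuclei counted on 4× images. Treatment had been applied by pin tool the day after seeding as one drug alone or as a fixed anchor-drug dose with five library-drug doses (not always all listed) in √10 steps. Relative viability is the nuclei count of treated wells divided by that of vehicle wells, and values are medians of duplicate plates.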
row,Cell Line,relative viability
1,LXF-289,0.984
2,NCI-H1666,0.425
3,RERF-LC-KJ,0.808
4,NCI-H650,0.549
5,NCI-H322M,0.983
6,NCI-H596,0.897
7,201T,1.12
8,NCI-H441,0.381
9,HCC-78,0.344

# Same assay, conditions: first compound 1 µM
row,Cell Line,relative viability
1,EKVX,0.649
2,NCI-H2087,0.412
3,NCI-H1734,0.47
4,LCLC-103H,1
5,LU99A,0.252
6,NCI-H460,0.139
7,SK-LU-1,0.404
8,COR-L23,0.298
9,HCC-15,0.71
10,NCI-H1563,0.722
11,EMC-BAC-2,0.568
12,LC-2-ad,0.662
13,NCI-H2085,0.853
14,NCI-H727,0.682
15,NCI-H647,0.432
16,HARA,0.67
17,NCI-H3122,0.87

row,Cell Line,relative viability
1,CAL-12T,0.729
2,COR-L 105,0.428
3,LCLC-97TM1,0.193
4,NCI-H520,0.225
5,NCI-H2228,0.65
6,NCI-H23,0.656
7,HCC-827,1.05
8,NCI-H2347,0.493
9,LXF-289,0.837
10,NCI-H1666,0.372
11,RERF-LC-KJ,0.511
12,NCI-H650,0.406
13,NCI-H322M,0.986
14,NCI-H596,0.892
15,201T,1.1
16,NCI-H441,0.28
17,HCC-78,0.35

# Compound: CCCS(=O)(=O)Nc1ccc(F)c(C(=O)c2c[nH]c3ncc(-c4ccc(Cl)cc4)cc23)c1F [Vemurafenib] + COc1cc2c(Oc3ccc(NC(=O)C4(C(=O)Nc5ccc(F)cc5)CC4)cc3F)ccnc2cc1OCCCN1CCOCC1 [Foretinib] (partner 0.25 µM)
# Experiment: as above
# Settings: first compound 0.03162 µM
# In short: as §1
row,Cell Line,relative viability
1,EKVX,0.617
2,NCI-H2087,1.02
3,NCI-H1734,0.81
4,LCLC-103H,0.668
5,LU99A,0.87
6,NCI-H460,0.96
7,SK-LU-1,0.706
8,COR-L23,0.864
9,HCC-15,0.941
10,NCI-H1563,0.859
11,EMC-BAC-2,1.06
12,LC-2-ad,0.859
13,NCI-H2085,0.856
14,NCI-H727,0.883
15,NCI-H647,1.12
16,HARA,0.858
17,NCI-H3122,0.992

row,Cell Line,relative viability
1,CAL-12T,1.15
2,COR-L 105,1.04
3,LCLC-97TM1,0.974
4,NCI-H520,0.702
5,NCI-H2228,0.845
6,NCI-H23,0.981
7,HCC-827,0.911
8,NCI-H2347,0.662
9,LXF-289,0.968
10,NCI-H1666,0.99
11,RERF-LC-KJ,0.858
12,NCI-H650,1.01
13,NCI-H322M,0.923
14,NCI-H596,0.921
15,201T,0.984
16,NCI-H441,0.962
17,HCC-78,0.59

# Same assay, conditions: first compound 0.1 µM
row,Cell Line,relative viability
1,NCI-H2087,0.979
2,NCI-H1734,0.82
3,LCLC-103H,0.685
4,LU99A,0.867
5,NCI-H460,0.982
6,SK-LU-1,0.709
7,COR-L23,0.92
8,HCC-15,1.09
9,NCI-H1563,0.976
10,EMC-BAC-2,0.862
11,LC-2-ad,0.705
12,NCI-H2085,0.92
13,NCI-H727,0.768
14,NCI-H647,1.11
15,HARA,0.634
16,NCI-H3122,0.957
17,CAL-12T,0.828
18,LCLC-97TM1,0.854
19,NCI-H520,0.763
20,NCI-H2228,0.931
21,NCI-H23,0.685
22,NCI-H2347,0.91
23,LXF-289,0.931
24,NCI-H1666,0.87
25,RERF-LC-KJ,0.816
26,NCI-H650,0.983
27,NCI-H596,0.643
28,201T,1
29,NCI-H441,0.696
30,HCC-78,0.476

# Same assay, conditions: first compound 0.3162 µM
row,Cell Line,relative viability
1,EKVX,0.745
2,NCI-H1734,0.779
3,LCLC-103H,0.704
4,LU99A,0.819
5,NCI-H460,0.909
6,SK-LU-1,0.647
7,COR-L23,0.854
8,NCI-H1563,0.93
9,EMC-BAC-2,0.832
10,NCI-H2085,1.26
11,NCI-H727,1.31
12,NCI-H647,1.34
13,HARA,0.945
14,NCI-H3122,1.02
15,CAL-12T,1.33
16,LCLC-97TM1,0.985
17,NCI-H520,0.897
18,NCI-H2228,0.828
19,NCI-H23,0.953
20,HCC-827,1.12
21,NCI-H2347,0.843
22,LXF-289,1.07
23,NCI-H1666,0.993
24,RERF-LC-KJ,0.875
25,NCI-H596,0.695
26,201T,1.06
27,NCI-H441,0.919
28,HCC-78,0.7

# Same assay, conditions: first compound 1 µM
row,Cell Line,relative viability
1,EKVX,0.703
2,NCI-H2087,1.12
3,NCI-H1734,0.763
4,LCLC-103H,0.69
5,LU99A,0.723
6,NCI-H460,1.05
7,SK-LU-1,0.705
8,COR-L23,0.957
9,HCC-15,1.05
10,NCI-H1563,0.935
11,EMC-BAC-2,1.03
12,LC-2-ad,1.01
